Results taken from PubChem BioAssay (NCI).
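Following 48 hours of exposure in 96-well plates, responses at five concentrations were used to interpolate endpoints linearly. TGI: concentration producing complete growth inhibition.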

How the values were obtained:
Test in all cases: NCI-60 cell line screen, 48 h
CAKI-1 renal = system: CAKI-1 renal
CCRF-CEM leukemia = system: CCRF-CEM leukemia
HT29 colon = system: HT29 colon
LOX IMVI melanoma = system: LOX IMVI melanoma
MDA-MB-231 breast = system: MDA-MB-231 breast
PC-3 prostate = system: PC-3 prostate
SK-MEL-2 melanoma = system: SK-MEL-2 melanoma
SR leukemia = system: SR leukemia
T-47D breast = system: T-47D breast

SMILES	TGI (CAKI-1 renal) [µM]	TGI (CCRF-CEM leukemia) [µM]	TGI (HT29 colon) [µM]	TGI (LOX IMVI melanoma) [µM]	TGI (MDA-MB-231 breast) [µM]	TGI (PC-3 prostate) [µM]	TGI (SK-MEL-2 melanoma) [µM]	TGI (SR leukemia) [µM]	TGI (T-47D breast) [µM]
S=C1NC2=C(CSC/C2=C\c2ccccc2)C(c2ccccc2)N1 (configuration not stated)	> 100	> 100	> 100	> 100	> 100	> 100	> 100	> 100	> 100
CC(C)C1=C(O)C2=C(C(=O)C1=O)C1(C)CCCC(C)(C)C1C(O)C2OC=O (configuration not stated)	11.7	8.47	23.2	11.6	22.5	30.6	28.6	6.52	27.9
CC1(C)OC2COC3([C@@H]4OC(C)(C)O[C@@H]4CO)OC(C)(C)OC3C2O1 (some centres not stated)	> 100	> 100		> 100	> 100	> 100	> 100	> 100	> 100
Clc1nncc2sc(-c3ccccc3)nc12	2.91	> 94.4	68.5	50.2	56.1	> 58.2	47.4	> 100	> 100
O=S1SC(=S)C2C=CC=CC21 (configuration not stated)	> 100	39	> 100	> 100	> 100	> 100	> 100	> 100	> 100
O=C1CS(=O)(=O)C(c2cccc(Oc3ccccc3)c2)N1c1cc(Cl)ccc1Cl (configuration not stated)		> 100	47.8	28.2	38.4	32	30.2	> 100	53.2
CCN1C(=O)C(=C/C=C/c2ccc(N(CC)CC)cc2)C(=O)N(CC)C1=S	> 100	> 100	> 100	> 100	> 100	> 100	> 100		> 100
COc1ccc(N2C(=O)C3c4[nH]c5ccccc5c4C4CCCCCCCCCC4C3C2=O)cc1 (configuration not stated)	> 10	> 10	> 10	> 10	> 10	> 10	> 10	> 10	> 10
CON(C)C(=O)C1CCCO1 (configuration not stated)	> 100	> 100	> 100	> 100	> 100	> 100	> 100	> 100	> 100
O=C1C=CC(=O)C(CNc2ccc(C(=O)OCc3ccccc3)cc2)=C1	2.94		31.8	17.8	24.9	13.4	30		
C=CC(=O)N1C/C(=C\c2ccc(Cl)cc2)C(=O)/C(=C/c2ccc(Cl)cc2)C1	1.32		0.326	0.229	1.2	0.751	2.85	> 100	6.85
CCOC(=O)NC(Nc1c(F)c(F)c(F)c(F)c1F)(C(F)(F)F)C(F)(F)F	> 100	> 100		> 100	> 100	> 100	> 100	> 100	> 100
O=[N+]([O-])c1cccc2c(N=Nc3ccc4ccccc4c3O)c(O)cc(S(=O)(=O)O)c12	> 100	66.7	> 100	> 100		> 100	> 100	> 100	
COC(=O)C1(O)C(c2ccccc2)=NC2(C)CCCC21 (configuration not stated)	> 100	> 100	> 100	> 100	> 100	> 100	> 100	> 100	> 100
COc1ccc(C2c3cc4c(cc3OC(NCCO)C2C)OCO4)cc1 (configuration not stated)	77.1	52.4	43.5	68.7	63.3	66.3	50.8	39.9	> 100
Cc1cc(C)c(/C=C(\C(=C/c2c(C)cc(C)cc2C)[N+](=O)[O-])[N+](=O)[O-])c(C)c1	> 100	> 100	> 100	> 100	> 100	> 100	> 100	> 100	> 100
CC(=O)n1nc(-c2ccccc2)n(/N=C/c2ccc([N+](=O)[O-])o2)c1=O	24.4	6.55	21.8	23.2	17.1	30.9	11.5	14.1	44.5
CCOP(=O)(OCC)OC1CC(n2cc(C)c(=O)n(C)c2=O)OC1CO[Si](C)(C)C(C)(C)C (configuration not stated)	> 100	> 100	> 100	> 100		> 100	> 100	> 100	> 100
Cc1cc(C)nc(NS(=O)(=O)c2ccc(NC(=O)c3cccc4c(NNc5ccc(S(=O)(=O)N=C(N)N)cc5)c5ccccc5nc34)cc2)n1	> 50	> 50	> 50	> 50	> 50	> 50		> 50	> 50
Cc1cc(O)c(-c2cc(O)c(C)cc2O)cc1O	14.6	3.8	> 53.1	16.6	33.3	27.6	33		5.26
COc1ccc(Oc2cnn(C(Br)(Br)C(C)=O)c(=O)c2Br)cc1	24.6	4.57	48.4	24.4	32.5	27.4	31.4	5.32	61
O=S1(=O)c2cnccc2NC(=NCc2ccccc2)N1c1ccccc1	> 100	> 100	> 100	> 100		> 100	> 100	> 100	> 100
O=[N+]([O-])c1cc(Cl)ccc1Sc1ccccc1	> 100	> 100	> 100	> 100	> 100	> 100	> 100		> 100
